Measurements reported in US8993752B2, “Neprilysin inhibitors” (Theravance Biopharma R&D IP, LLC, priority 2011, dated 2015).

Molecular target: T1, human NEP (Homo sapiens, UniProt P08473)
T1 construct: purchased R&D Systems, Minneapolis, Minn; 1182-ZN
Test: In vitro enzyme inhibition assay at human NEP (fluorogenic peptide substrate)
Type: biochemical
Conditions: recombinant human NEP; substrate Mca-D-Arg-Arg-Leu-Dap-(Dnp)-OH 10 μM; 37° C.; values given as ranges; read-out: pKi values at human NEP (converted)
How it was run: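 Recombinant human NEP pre-incubated 30 min at 37 °C with compound (10 μM to 20 pM), then 10 μM Mca-D-Arg-Arg-Leu-Dap-(Dnp)-OH in 50 mM HEPES pH 7.5, 100 mM NaCl, 0.01% Tween-20, 10 μM ZnSO4. Stopped after 20 min with acetic acid, fluorescence read at 320/405 nm; Ki from nonlinear fit, reported as pKi.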

T1 sequence (P08473 whole entry): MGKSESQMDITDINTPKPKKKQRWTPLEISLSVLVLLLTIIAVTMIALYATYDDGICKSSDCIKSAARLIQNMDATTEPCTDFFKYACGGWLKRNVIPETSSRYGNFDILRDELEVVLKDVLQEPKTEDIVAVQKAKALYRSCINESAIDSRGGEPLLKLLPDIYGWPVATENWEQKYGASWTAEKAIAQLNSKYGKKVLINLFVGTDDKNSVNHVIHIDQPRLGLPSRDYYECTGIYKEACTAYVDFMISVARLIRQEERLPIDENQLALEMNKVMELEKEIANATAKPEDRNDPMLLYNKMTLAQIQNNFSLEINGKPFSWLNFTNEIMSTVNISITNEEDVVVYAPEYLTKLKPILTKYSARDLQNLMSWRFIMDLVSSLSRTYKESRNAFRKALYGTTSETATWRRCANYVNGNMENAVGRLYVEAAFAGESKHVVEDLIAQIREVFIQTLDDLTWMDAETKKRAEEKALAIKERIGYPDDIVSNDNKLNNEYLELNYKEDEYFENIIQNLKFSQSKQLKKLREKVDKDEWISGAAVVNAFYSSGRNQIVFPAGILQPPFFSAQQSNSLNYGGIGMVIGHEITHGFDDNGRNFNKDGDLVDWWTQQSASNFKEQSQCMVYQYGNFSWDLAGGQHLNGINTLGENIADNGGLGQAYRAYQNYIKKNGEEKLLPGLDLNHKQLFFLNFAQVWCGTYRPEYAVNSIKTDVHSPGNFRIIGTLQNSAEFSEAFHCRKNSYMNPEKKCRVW

CC(=O)Nc1cccc(-c2cc(C(=O)N[C@H](Cc3ccccc3Cl)[C@@H](O)C(=O)O)n[nH]2)c1 [Example 2-47, (2R,3R)-3-{[5-(3-Acetylamino-phenyl)-1H-pyrazole-3-carbonyl]-amino}-4-(2-chloro-phenyl)-2-hydroxy-butyric acid]
Ki: 12.6 to 100 nM

CCCCc1cc(C(=O)N[C@H](Cc2ccccc2Cl)[C@@H](O)C(=O)O)[nH]n1 [Example 3-1, (2R,3R)-3-[(5-Butyl-2H-pyrazole-3-carbonyl)-amino]-4-(2-chloro-phenyl)-2-hydroxy-butyric acid]
Ki: 12.6 to 100 nM

CCCc1cc(C(=O)N[C@H](Cc2ccccc2)[C@@H](O)C(=O)O)nn1Cc1ccccc1 [Example 8-19, (2R,3R)-3-[(1-Benzyl-5-propyl-1H-pyrazole-3-carbonyl)-amino]-2-hydroxy-4-phenyl-butyric acid]
Ki: 12.6 to 100 nM

Cn1nc(C(=O)N[C@H](Cc2ccccc2Cl)[C@@H](O)C(=O)O)cc1-c1ccccc1 [Example 2-58, (2R,3R)-4-(2-Chloro-phenyl)-2-hydroxy-3-[(1-methyl-5-phenyl-1H-pyrazole-3-carbonyl)-amino]-butyric acid]
Ki: 12.6 to 100 nM

CSc1ccc(Cn2nc(C(=O)N[C@H](Cc3ccccc3)[C@@H](O)C(=O)O)cc2C2CC2)cc1 [Example 8-23, (2R,3R)-3-{[5-Cyclopropyl-1-(4-methylsulfanyl-benzyl)-1H-pyrazole-3-carbonyl]-amino}-2-hydroxy-4-phenyl-butyric acid]
Ki: 12.6 to 100 nM

COc1cc(F)c(Cn2nc(C(=O)N[C@H](Cc3ccccc3Cl)[C@@H](O)C(=O)O)cc2C(=O)O)c(F)c1 [Example 2-32, 5-[(1R,2R)-2-Carboxy-1-(2-chloro-benzyl)-2-hydroxy-ethylcarbamoyl]-2-(2,6-difluoro-4-methoxy-benzyl)-2H-pyrazole-3-carboxylic acid]
Ki: ≤ 1 nM
